Assay results reported in BindingDB's records for doi:10.1021/jm050825p (National Institute of Allergy and Infectious Diseases, 2006).

How the values were obtained:
[1] = molecular target: T1, 3-oxoacyl-[acyl-carrier-protein] synthase 3 (Mycobacterium tuberculosis (strain ATCC 25618 / H37Rv), UniProt P9WNG3); test: Inhibitory activity against FabH from Mycobacterium tuberculosis H37Rv
T1 sequence (P9WNG3 whole entry): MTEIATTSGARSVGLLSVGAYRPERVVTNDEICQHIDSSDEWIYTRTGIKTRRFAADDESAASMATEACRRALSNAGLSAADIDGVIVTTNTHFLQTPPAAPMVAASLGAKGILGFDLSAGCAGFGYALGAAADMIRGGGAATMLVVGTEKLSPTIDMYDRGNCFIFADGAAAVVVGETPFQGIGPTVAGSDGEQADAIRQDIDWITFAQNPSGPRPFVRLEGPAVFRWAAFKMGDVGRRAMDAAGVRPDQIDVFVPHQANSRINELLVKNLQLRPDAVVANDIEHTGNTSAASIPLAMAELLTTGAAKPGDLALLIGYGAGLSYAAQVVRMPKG

[2] = molecular target: T2, 3-oxoacyl-[acyl-carrier-protein] synthase 2 (Mycobacterium tuberculosis (strain ATCC 25618 / H37Rv), UniProt P9WQD7); test: Inhibitory activity against KasB from Mycobacterium tuberculosis H37Rv
T2 sequence (P9WQD7 whole entry): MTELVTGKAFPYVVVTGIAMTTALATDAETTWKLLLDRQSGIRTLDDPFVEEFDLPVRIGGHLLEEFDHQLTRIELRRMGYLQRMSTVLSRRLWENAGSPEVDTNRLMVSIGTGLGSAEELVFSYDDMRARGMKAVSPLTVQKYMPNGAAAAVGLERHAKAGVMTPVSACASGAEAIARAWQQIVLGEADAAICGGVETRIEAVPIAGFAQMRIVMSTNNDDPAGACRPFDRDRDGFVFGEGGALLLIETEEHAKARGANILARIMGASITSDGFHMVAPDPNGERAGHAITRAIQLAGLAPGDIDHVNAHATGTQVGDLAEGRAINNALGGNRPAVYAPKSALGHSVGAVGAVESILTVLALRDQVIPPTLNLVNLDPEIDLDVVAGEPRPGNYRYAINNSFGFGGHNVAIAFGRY

[3] = molecular target: T3, 3-oxoacyl-[acyl-carrier-protein] synthase 1 (Escherichia coli (strain K12), UniProt P0A953); test: Inhibitory activity against FabB from Escherichia coli ANSI
T3 sequence (P0A953 whole entry): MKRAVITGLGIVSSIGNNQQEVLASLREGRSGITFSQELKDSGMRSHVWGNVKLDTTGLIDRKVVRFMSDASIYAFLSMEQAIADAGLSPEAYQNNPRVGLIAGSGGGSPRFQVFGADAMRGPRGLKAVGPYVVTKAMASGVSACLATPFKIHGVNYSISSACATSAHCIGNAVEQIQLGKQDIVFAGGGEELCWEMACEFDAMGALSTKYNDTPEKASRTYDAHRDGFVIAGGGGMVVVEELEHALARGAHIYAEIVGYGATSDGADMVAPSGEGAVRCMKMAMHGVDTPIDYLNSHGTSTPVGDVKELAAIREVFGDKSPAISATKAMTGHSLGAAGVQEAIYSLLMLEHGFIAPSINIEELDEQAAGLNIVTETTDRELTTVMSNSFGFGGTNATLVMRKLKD

[4] = molecular target: T4, 3-oxoacyl-[acyl-carrier-protein] synthase 3 (Escherichia coli, UniProt C3TDZ2); test: Inhibitory activity against FabH from Escherichia coli ANSI
T4 sequence (C3TDZ2 whole entry): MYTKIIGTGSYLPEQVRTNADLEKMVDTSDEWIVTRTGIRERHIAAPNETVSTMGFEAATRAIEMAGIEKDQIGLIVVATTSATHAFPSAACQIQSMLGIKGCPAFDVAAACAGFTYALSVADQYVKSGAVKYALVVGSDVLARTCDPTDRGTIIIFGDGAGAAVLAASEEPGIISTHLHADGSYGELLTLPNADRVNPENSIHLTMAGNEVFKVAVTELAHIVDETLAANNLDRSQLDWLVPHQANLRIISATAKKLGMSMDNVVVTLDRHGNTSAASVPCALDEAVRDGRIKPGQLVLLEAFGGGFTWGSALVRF

| Compound | IC50 [1] [µM] | IC50 [2] [µM] | IC50 [3] [µM] | IC50 [4] [µM] |
| --- | --- | --- | --- | --- |
| COc1ccc(CC2(C)SC(=O)C(C)C2=O)cc1 (stereo unspecified) [4-Hydroxy-5-(4-methoxy-benzyl)-3,5-dimethyl-5H-thiophen-2-one] | > 1000 | > 1000 | > 1000 | > 1000 |
| CC1C(=O)SC(C)(Cc2c(Cl)cccc2Cl)C1=O (stereo unspecified) [5-(2,6-dichlorobenzyl)-3,5-dimethyl-4-hydroxy-5H-thiophen-2-one] | > 1000 | > 1000 | > 1000 | > 1000 |
| CC1C(=O)SC(C)(Cc2ccccc2Cl)C1=O (stereo unspecified) [5-(2-chlorobenzyl)-3,5-dimethyl-4-hydroxy-5H-thiophen-2-one] | > 1000 | > 1000 | > 1000 | > 1000 |
| CC1C(=O)SC(C)(Cc2cccc(Cl)c2)C1=O (stereo unspecified) [5-(3-chlorobenzyl)-3,5-dimethyl-4-hydroxy-5H-thiophen-2-one] | > 1000 | > 1000 | > 1000 | > 1000 |
| CC1C(=O)SC(C)(Cc2ccc(Cl)cc2)C1=O (stereo unspecified) [5-(4-chlorobenzyl)-3,5-dimethyl-4-hydroxy-5H-thiophen-2-one] | > 100 | > 1000 | > 1000 | > 1000 |
| CC1C(=O)SC(C)(Cc2ccc(C(C)(C)C)cc2)C1=O (stereo unspecified) [5-(4-tert-butylbenzyl)-3,5-dimethyl-4-hydroxy-5H-thiophen-2-one] | > 100 | > 1000 | > 1000 | > 1000 |
| C=CCCC1(C)SC(=O)C(C)C1=O (stereo unspecified) [5-(but-3-enyl)-3,5-dimethyl-4-hydroxy-5H-thiophen-2-one] | > 1000 | > 1000 | > 1000 | > 1000 |
| CC1C(=O)SC(C)(CC2CCC2)C1=O (stereo unspecified) [5-cyclobutylmethyl-3,5-dimethyl-4-hydroxy-5H-thiophen-2-one] | > 1000 | > 1000 | > 1000 | > 1000 |
| CC1C(=O)SC(C)(CC2CCCCC2)C1=O (stereo unspecified) [5-cyclohexylmethyl-3,5-dimethyl-4-hydroxy-5H-thiophen-2-one] | > 1000 | > 1000 | > 1000 | > 1000 |
